Test results as given in US5037980A, “Phenyl imidazo[1,2-a]pyrimidines” (American Cyanamid Company, priority 1988, dated 1991).

Experiments:
brain-specific receptors = assay: Inhibition of the binding of 3H-benzodiazepine to brain-specific receptors of rats; design: species or system rat (Wistar); conditions: 3H-flunitrazepam, rat whole cortex P2-synaptosomal fraction, pH 7.5, 30 minutes, 0° C.; test compound concentration not given
[1] = tested on: spontaneously hypertensive rats; assay: Mean arterial blood pressure in spontaneously hypertensive rats; assay type: in vivo, Okamoto strain); conditions: 100 mg/kg by gavage at 0 and 24 hours, measured at 28 hours, 1 rat; average of SHR used 170+1.5 mm of mercury
Procedure: The novel compounds of the present invention were tested for hypotensive activity by the method of P. S. Chan and D. W. Poorwin, Clin. Exptl. Hypertension, 1 (6): 817 (1979). Male, 16-20 week old, spontaneously hypertensive rats (SHR) of the Okamoto strain, from Taconic Farms, Germantown, New York, having an average mean arterial blood pressure of 170+1.5 mm of mercury are used in the test. One male adult SHR weighing about 300 g is dosed by gavage with a test compound, suspended in 2% pre-boiled starch at a concentration of 50 mg/ml, at a dose of 100 mg/kg of body weight or less, with 0.9% sodium chloride loading at a dose of 25 ml/kg of body weight, at zero hours. A second indentical dose of the test compound, without sodium chloride loading in given 24 hours later. At 28 hours after the initial dose the mean arterial blood pressure is measured by the method of Chan and Poorwin vide supra. The results of this test on representative compounds of the present invention appear below in Table IV.

[2] = tested on: clonic seizures caused by pentylenetetrazole in rats; assay: Protection against clonic seizures caused by pentylenetetrazole in rats; assay type: in vivo, rat; conditions: oral or i.p., pentylenetetrazole 23 mg/kg i.v. at 30 or 60 minutes
Procedure: The anti-anxiety properties of the novel compounds of the present invention have been established in a test which indicates anxiolytic activity by the measure of protection from convulsions resulting from the administration of pentylenetetrazole. Single or graded dose levels of the test compounds were administered orally or intraperitoneally in a 2% starch vehicle containing 0.5% v/v polyethylene glycol and one drop of polysorbate 80 or distilled water and one drop of polysorbate 80 to groups of at least 4 rats. At 30 or 60 minutes, the rats were treated intravenously with pentylenetetrazole at a dose of 23 mg/kg of body weight. This dose is estimated to cause clonic seizures in 99% of unprotected rats. It has been reported [R. T. Hill and D. H. Tedeschi, "Animal Testing and Screening Procedures in Evaluating Psychotropic Drugs" in "An Introduction to Psychopharmacology", Eds. R. R. Rech and K. E. Moore, Raven Press, New York, pp 237-288 (1971)] that there is a high degree of correlation between antagonism of pentylenetetrazole seizures in rats and anti-anxietyeffects in higher warm-blooded animals.

rats = assay: Non-conditioned passive avoidance test in rats; assay type: in vivo, rat (Wistar); design: key: Active: considered active if the number of shocks received by the test group is significantly higher than the control group by the Mann-Whitney U test; conditions: oral or i.p., 30 or 60 minutes before test
Procedure: Another test used to assess anti-anxiety effects is a non-conditioned passive avoidance procedure described by J. R. Vogel, B. Beer and D. E. Clody. "A Simple and Reliable Conflict Procedure for Testing Anti-Anxiety Agents", Psychopharmacologia, 21, 1-7 (1971). A conflict situation is induced in rats by a modification of this method.
Groups of 8 naive, Wistar strain male rats weighing 200-240 g each were deprived of water for 48 hours. The test compounds were administered in single or graded, oral or intraperitoneal doses, suspended in distilled water and one drop of polysorbate 80. Control animals received the vehicle alone. At 30 or 60 minutes each rat was placed in an individual clear plexiglass chamber. Tap water was available ad libitum from a nipple located in a black plexiglass box off the main chamber. A 0.7 milliampere AC shocking current was established between the stainless steel grid floor and the tap. After 20 licks of non-shocked drinking, a 2 second shocking current was administered to the rat. This ratio of 20 licks of non-shocked drinking followed by a 2 second shock was continued for a total of 3 minutes. The number of shocks taken by each rat during the 3 minute interval was recorded and compared to a control group.

| SMILES | % Inhibition of 3H-benzodiazepine binding (brain-specific receptors) | Mean Arterial Blood Pressure [1] | further results |
| --- | --- | --- | --- |
| Clc1ccc(-c2ccnc3nccn23)c(Cl)c1 [5-(2,4-Dichlorophenyl)imidazo-[1,2-a]pyrimidine] | 11% | 111 |  |
| Cc1cc(-c2ccccc2F)n2ccnc2n1 [5-(2-Fluorophenyl)-7-methyl imidazo[1,2-a]pyrimidine] | 13% |  |  |
| Fc1ccccc1-c1ccnc2nccn12 [5-(2-Fluorophenyl)imidazo[1,2-a]-pyrimidine] | 49% | 121 |  |
| COc1cc(-c2ccnc3nccn23)cc(OC)c1OC [5-(3,4,5-Trimethoxyphenyl)imidazo-[1,2-a]pyrimidine] |  | 147 | % of Rats Protected ([2]; dose 25 mg/kg): 75% |
| Cc1cc(-c2ccc(Cl)c(Cl)c2)n2ccnc2n1 [5-(3,4-Dichlorophenyl)-7-methyl-imidazo-[1,2-a]pyrimidine] | 22% | 119 |  |
| COc1ccc(-c2cc(C)nc3nccn23)cc1OC [5-(3,4-Dimethoxyphenyl)-7-methyl-imidazo[1,2-a]pyrimidine] | 46% | 148 |  |
| Clc1cccc(-c2ccnc3nccn23)c1 [5-(3-Chlorophenyl)imidazo[1,2-a]-pyrimidine] | 37% | 146 | % of Rats Protected ([2]; dose 25 mg/kg): 50%; Result (non-conditioned passive avoidance) (rats; dose 25.0 mg/kg): Active |
| Brc1ccc(-c2ccnc3nccn23)cc1 [5-(4-Bromophenyl)imidazo[1,2-a]-pyrimidine] |  | 97 |  |
| FC(F)(F)c1cccc(-c2ccnc3nccn23)c1 [5-(α,α,α-Trifluoro-m-tolyl)imidazo[1,2-a]pyrimidine] | 46% | 126 | % of Rats Protected ([2]; dose 50 mg/kg): 100%; Result (non-conditioned passive avoidance) (rats; dose 25.0 mg/kg): Active |
| COc1cc(-c2cc(C)nc3nccn23)cc(OC)c1OC [7-Methyl-5-(3,4,5-trimethoxy-phenyl)imidazo[1,2-a]pyrimidine] | 10% |  | Result (non-conditioned passive avoidance) (rats; dose 35.0 mg/kg): Active |
| Cc1cc(-c2cccc(C(F)(F)F)c2)n2ccnc2n1 [7-Methyl-5-[3-(trifluoromethyl)phenyl]imidazo[1,2-a]pyrimidine] | 42% | 127 |  |
| Cc1cc(-c2ccccc2)n2ccnc2n1 [7-Methyl-5-phenylimidazo[1,2-a]-pyrimidine] | 43% |  |  |
